Earlier results, collected in PMC8296985, “A Covalent Calmodulin Inhibitor as a Tool to Study Cellular Mechanisms of K-Ras-Driven Stemness” (Frontiers in Cell and Developmental Biology, 2021).

Tested on: Ca^2+/CaM-dependent cyclic nucleotide phosphodiesterase
Parameters: method as in Itoh and Hidaka, 1984; Zimmer and Hofmann, 1984
Conditions: ref Itoh and Hidaka, 1984, Zimmer and Hofmann; cited from earlier work

NCCCCCCNS(=O)(=O)c1cccc2c(Cl)cccc12 [Compound W-7]
concentration inhibiting CaM targets: > 100 µM
